# Measured values as given in patent US11833147B2, “Procaspase 3 activation by combination therapy” (The Board of Trustees of the University of Illinois, priority 2012, dated 2023).
# Columns and labels:
# [1] = in mammals; cited from earlier work
# U-937 (lymphoma) cells = assay: U-937 (lymphoma) cell death, PAC-1 with second agent; format: cell-based; conditions: 0-15 μM PAC-1, 0 nM second agent, 8 hours, FIG. 4
# Procedure: FIG. 2. Effects of PAC-1 with Etoposide on U-937 (lymphoma) cell death. Dashed lines represent the level of purely additive effects.
# FIG. 3. Effects of PAC-1 with Velcade® (bortezomib) on U-937 (lymphoma) cell death. […] Cell death was measured after 6 hours in bortezomib.
# FIG. 4. Effects of PAC-1 with staurosporine on U-937 (lymphoma) cell death. […] Cell death was measured after 8 hours in staurosporine.
# [2] = more active than irinotecan itself; cited from earlier work
SMILES,safety [1],cell death with PAC-1 alone (U-937 (lymphoma) cells),activity relative to irinotecan [2] [times]
"C=CCc1cccc(/C=N/NC(=O)CN2CCN(Cc3ccccc3)CC2)c1O [PAC-1, 2-(4-benzylpiperazin-1-yl)-N-[(2-hydroxy-3-prop-2-enyl-phenyl)methylideneamino]acetamide]",safe,Little or no cell death,
CCc1c2c(nc3ccc(O)cc13)-c1cc3c(c(=O)n1C2)COC(=O)[C@]3(O)CC [SN-38],,,200
